Columns and labels:
[1] = target: Sodium-dependent dopamine transporter (Rattus norvegicus, UniProt P23977); experiment: Displacement of [125I]PE2I from rat DAT
Plasma = experiment: Metabolic stability in cynomolgus monkey venous plasma assessed as compound recovery by radio-HPLC; type: ADME, cell-free, Macaca fascicularis
[2] = Ratio of drug uptake in cerebellum to caudate in cynomolgus monkey at 59 MBq after 105 mins; type: ADME, Macaca fascicularis; conditions: in vivo, 1.75 h
[3] = Ratio of drug uptake in cerebellum to putamen in cynomolgus monkey by GBR-12909 displacement assay; design: species or system Macaca fascicularis; conditions: in vivo
[4] = Ratio of drug uptake in cerebellum to putamen in cynomolgus monkey at 59 MBq after 105 mins; type: ADME, Macaca fascicularis; conditions: in vivo, 1.75 h
Brain = experiment: Drug uptake in cynomolgus monkey brain at 59 MBq after 13 mins; type: ADME, tissue-based, Macaca fascicularis; conditions: in vivo
[5] = Ratio of drug uptake in cerebellum to caudate in cynomolgus monkey by GBR-12909 displacement assay; design: species or system Macaca fascicularis; conditions: in vivo

Chain of Sodium-dependent dopamine transporter (P23977 whole entry): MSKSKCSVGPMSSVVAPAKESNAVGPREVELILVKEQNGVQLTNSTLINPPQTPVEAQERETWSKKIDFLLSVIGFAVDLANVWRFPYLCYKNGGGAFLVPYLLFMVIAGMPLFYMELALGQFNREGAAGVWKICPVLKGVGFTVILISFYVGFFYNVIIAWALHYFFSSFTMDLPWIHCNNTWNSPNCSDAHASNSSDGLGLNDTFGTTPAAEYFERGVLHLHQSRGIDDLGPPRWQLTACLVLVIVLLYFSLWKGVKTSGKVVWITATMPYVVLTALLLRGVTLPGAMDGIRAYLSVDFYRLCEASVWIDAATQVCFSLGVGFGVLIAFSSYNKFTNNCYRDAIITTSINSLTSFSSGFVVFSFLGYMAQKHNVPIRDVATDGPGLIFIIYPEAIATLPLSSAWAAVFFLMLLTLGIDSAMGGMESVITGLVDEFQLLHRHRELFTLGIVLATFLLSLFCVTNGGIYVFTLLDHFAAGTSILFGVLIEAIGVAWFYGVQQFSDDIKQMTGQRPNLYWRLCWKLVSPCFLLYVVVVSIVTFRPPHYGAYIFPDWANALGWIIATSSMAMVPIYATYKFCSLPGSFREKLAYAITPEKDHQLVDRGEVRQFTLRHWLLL

Structure (SMILES)	Ki [1] [nM]	Stability (Plasma) [%]	Ratio [2]	Ratio [3]	Ratio [4]	SUV (Brain) [%]	Ratio [5]
COC(=O)[C@H]1[C@@H](c2ccc(C)cc2)C[C@@H]2CC[C@H]1N2C/C=C/I	16						
Cc1ccc([C@H]2C[C@@H]3CC[C@H]([C@H]2C(=O)OCC[18F])N3C/C=C/I)cc1		91	7.5	1.3	7.9	540	1.4
Cc1ccc([C@H]2C[C@@H]3CC[C@H]([C@H]2C(=O)OCCF)N3C/C=C/I)cc1	12						

Source: ChEMBL document CHEMBL1153065, “Synthesis, radiolabeling and preliminary in vivo evaluation of [18F]FE-PE2I, a new probe for the dopamine transporter” (Bioorg Med Chem Lett, 2009)
